{"source": "patent US11191874B2", "about": "“Biomaterials for neuronal implants and use of said biomaterials in the diagnosis and therapy of neuronal diseases” (Albert-Ludwigs-U[…], priority 2014, dated 2021)", "key": {"[1]": {"test_system": "rat hippocampal neurons and astrocytes", "test": "Neuron-astrocyte association in mixed primary hippocampal cultures", "assay_type": "cell-based", "conditions": "GsMTx4 5 μM, smooth glass substrates", "description": "The inventors therefore evaluated the response of mixed primary cultures of rat hippocampal neurons and astrocytes to the different roughness regimes.\nAn also remarkable finding was that nanoroughness appeared to modulate the relationship, and dependency of neurons on astrocytes. […] After 5 days, the percent neurons that were associated with astrocytes on the 32 nm Rq surface was around 15%, which was 1.5-2 fold lower than those on other Rq's, which ranged from 20-40%, and 6 fold lower than that on the smooth glass substrate (FIG. 4c). That is, in comparison to the other Rq's, over twice as many neurons on 32 nm Rq surface were surviving independently of astrocytes. At 6 weeks however, the percent of neurons that were surviving independently of astrocytes on the 32 nm Rq was over 6 fold greater in comparison to the other Rq's. While over 90% of neurons were associated with astrocytes on other roughnesses, only 15% of neurons were associated with astrocytes on 32 nm Rq (FIG. 4d). […]\nCell density/composition analysis: In order to analyze the cell density and composition of mixed neuron/astrocyte cultures on the different substrates at the end of the experiments, MAP-2^+, GFAP^+ and Tuj-1^+ cells were counted in 4 separately isolated cultures in 10 random image sections and on two different substrates of each isolated culture."}, "[2]": {"test_system": "hippocampal neurons", "test": "Calcium sensitive FURA-2 imaging of hippocampal neurons after KCl depolarization", "assay_type": "cell-based, rat", "conditions": "GsMTx4, KCl depolarization", "experimental": "Calcium sensitive imaging: Intracellular calcium levels were measured with the cell permeable probe FURA-2-acetoxymethyl ester (Invitrogen Life Technologies GmbH). Cells were exposed to 5 μM FURA-2-AMin DMSO (final concentration of 0.2%) for 45 minutes in a humidified incubator at 37° C. Increase in intracellular calcium levels following depolarization with 50 mM KCl was analyzed by the change in the absorption and emission spectra of FURA-2 upon Ca^2+ binding using a custom-built perfusion chamber mounted to a Zeiss Observer Z1 and the ZEN blue software (Zeiss AG, Germany).The rate of intracellular Ca^2+ increase was calculated as the slope of the linear portion of the increase in FURA-2 intensity."}, "[3]": {"test_system": "GMB tumor spheroids", "test": "U-87 spheroid Matrigel invasion assay", "assay_type": "cell-based", "conditions": "GsMTx4 in culture media, 3D matrix", "experimental": "Spheroids (which resemble a GBM tumor in vitro) are formed via the hanging drop procedure. For this, cells were seeded into a carboxymethylcellulose solution (with very high viscosity) and pipetted on the inner side of the lid of a cell culture plate. After reversing the lid and putting it back onto the cell culture plate, the cells are hanging in a drop of carboxymethylcellulose. Because of the high viscosity of the media and no possibility to attach, the cells form spheroids. […] During incubation cells start migrating out of the spheroid and invading the 3D matrix. The higher the invasive potential of the cells, the more they will invade the 3D matrix."}}, "note": "Entries after “also recorded” stand apart in the source; their conditions may differ. Where no end group is shown, it is not given here."}
{"substance": "GsMTx4 (GCLEFWWKCNPNDDKCCRPKLKCSKLFKLCNFSF; ends and bridges not checked; cysteine pairing not given here)", "values": [{"measurement": "neuron-astrocyte coupling upon inhibition of Piezo-1 (FAM38A)", "setting": "[1]", "value": "neurons decouple from astrocytes even on smooth glass substrates; also recorded: decoupling of hippocampal neurons from astrocytes"}, {"measurement": "FURA-2 intensity profile and rate of calcium influx upon depolarization, smooth glass versus Rq=32 nm, upon inhibition of Piezo-1", "setting": "[2]", "value": "is lost upon inhibition of Piezo-1; also recorded: identical"}, {"measurement": "formation of sprouts from tumor spheroids (invasiveness)", "setting": "[3]", "value": "significantly reduced; also recorded: less invasive potential"}]}
